# Measurements as given in PMC12648108, “Phenotypic pleiotropy of missense variants in human B cell confinement receptor P2RY8” (Cell Genomics, 2025).
# Legend:
# P2RY8 [1] = target: T1, P2RY8 (Homo sapiens, UniProt Q86VZ1, L220Y); experiment: TRUPATH BRET G13 activation assay; type: cell-based; details: agonist (falling BRET ratio); HEK293T with Gα13-RLuc8, Gβ3, Gγ9-GFP2; HBSS, 20 mM HEPES
# T1 construct: full length, 358 codons after start to 358; preprolactin signal + N-terminal OX56 tag (P2A-eGFP vector) for BRET; P2RY8-LgBiT fusion for beta-arrestin; MSCV-GFP vector in WEHI-231; expressed in HEK293T or WEHI-231
# [2] = target: T2, P2RY8-miniGα13 in complex with Gβ1γ2 (Homo sapiens, UniProt Q86VZ1); experiment: cryo-EM structure, […] Å map; type: binding; details: orthosteric pocket; active state, Gβ1γ2 bound; pH 7.5, L-MNG/GDN/CHS, 30 μM GGG
# T2 construct: Expi293F TetR; complexed with human Gβ1γ2 from Hi5 cells
# P2RY8 [3] = target: T3, P2RY8 (Homo sapiens, UniProt Q86VZ1); experiment: migration inhibition of P2RY8-transduced WEHI-231 cells; type: cell-based; details: agonist; CXCL12 50 ng/mL, 37 °C, 3 h
# T3 construct: full length, 358 codons after start to 358; preprolactin signal + N-terminal OX56 tag (P2A-eGFP vector) for BRET; P2RY8-LgBiT fusion for beta-arrestin; MSCV-GFP vector in WEHI-231; expressed in HEK293T or WEHI-231
Structure (SMILES),G protein activation (P2RY8 [1]),"cryo-EM structure, 2.7 Å map [2]",fold less potency than GGG (P2RY8 [3])
CC(C)=CCC/C(C)=C/CC/C(C)=C/CC/C(C)=C/CSC[C@H](NC(=O)CC[C@H](N)C(=O)O)C(=O)NCC(=O)O [S-geranylgeranyl-L-glutathione],The strongly deleterious variant L220Y was unable to drive G protein activation,density consistent with GGG located in the canonical class A GPCR orthosteric ligand-binding pocket,
CCCCC/C=C\C\C=C/C=C/C=C/[C@@H](SC[C@H](NC(=O)CC[C@H](N)C(=O)O)C(=O)NCC(=O)O)[C@@H](O)CCCC(=O)O [leukotriene C4],,,~ 100 fold
